Reference: article PMC9501899 (Journal of the American Chemical Society, 2022)
Like-named read-outs stand apart in the source and are kept apart here.

Experiments:
human LRRK2 = target: T1, human LRRK2 (Homo sapiens, UniProt Q5S007); assay: LRRK2 degradation in peripheral blood mononuclear cells (PBMCs); type: cell-based
T1 construct: endogenous in cells; host or cells: human PBMCs from healthy donors
Text: (§1) The relative LRRK2 protein and pRab10 levels were obtained by quantifying the ratios of total LRRK2/GAPDH or Rab10-pThr73/total Rab10, respectively, and the ratios were normalized to the DMSO-treated samples. The relative LRRK2 and pRab10 protein levels were plotted against the compound concentration and fitted against “nonlinear regression, one site-fit log IC50” in GraphPad to obtain the DC50 and EC50 values. Data points are presented as mean ± standard error of the mean (SEM) from three biological independent replicates. […] The relative LRRK2 protein and pRab10 levels were obtained by quantifying the ratios of total LRRK2/ GAPDH or Rab10-pThr73/total Rab10, respectively, and the ratios were normalized to the DMSO-treated samples. The relative LRRK2 and pRab10 protein levels were plotted against the treatment time and were fitted against “nonlinear regression, one-phase decay” in GraphPad to obtain the half-life (T1/2) values. Data points are presented as mean ± SEM from three biological independent replicates. […] The relative LRRK2 levels were obtained by quantifying the ratios of total LRRK2/tubulin and normalized to the DMSO-treated samples. The relative LRRK2 levels were plotted against the compound concentration and fitted against “nonlinear regression, one site-fit log IC50” in GraphPad to obtain the DC50 values.
PBMC cells were separated from human blood from healthy volunteer donors following the existing protocol[82] and pelleted by centrifugation at 1000g for 2 min. The supernatant was discarded, and the PBMC pellet was resuspended in PBS containing 2% FBS for washing. The suspension was centrifuged at 1000g for 2 min again, and the PBMC pellet was resuspended in Roswell Park Memorial Institute (RPMI)-1640 (Gibco) media supplemented with 10% FBS. The cells were then seeded into six-well plates and treated with testing compounds at indicated concentrations and time periods. After treatment, the cells were collected into a 2 mL Eppendorf tube and centrifuged at 500g for 2 min to pellet the cells, the supernatant was discarded, and the pellet was resuspended in 1 mL PBS and centrifuged at 500g for 2 min again. The PBMC pellet was lysed with 60 μL of lysis buffer containing 50 mM tris–HCl, pH 7.5, 1% (v/v) Triton X-100, 1 mM ethylene glycol-bis(β-aminoethyl ether)-N,N,N′,N′-tetraacetic acid (EGTA), 1 mM sodium orthovanadate, 50 mM NaF, 0.1% (v/v) 2-mercaptoethanol, 10 mM 2-glycerophosphate, 5 mM sodium pyrophosphate, 0.1 μg/mL microcystin-LR (Enzo Life Sciences), 270 mM sucrose, and 0.5 mM diisopropyl fluorophosphate (DIFP) (Sigma-Aldrich, Cat# D0879) in addition to a complete EDTA-free protease inhibitor cocktail (Sigma-Aldrich Cat # 11836170001). DIFP is highly toxic and must be prepared in a fume hood to a stock solution of 0.5 M in isopropanol. The lysed cells were then centrifuged at 1500g for 15 min at 0 °C. The supernatants were collected for analysis by quantitative immunoblotting. For long-term storage, the supernatant was flash-frozen and stored at −80 °C. Protein concentrations of cell lysates were determined using the Pierce BCA Protein Assay Kit (Thermo Fisher).
Cell lysates containing a quarter of a volume of 4× NuPAGE LDS sample buffer (NP0007) supplemented with 5% β-mercaptoethanol were heated at 95 °C for 5 min. Samples (15–20 μg) were loaded onto precast 4–12% bis–tris midi 20W or 26W gels (Thermo Fisher Scientific, Cat# WG1402BOX or WG1403BOX) and resolved at 130 V for 2 h with a NuPAGE MOPS SDS running buffer (Thermo Fisher Scientific Cat# NP0001-02). Proteins were electrophoretically transferred onto a 0.45 μm nitrocellulose membrane (GE Healthcare, Amersham Protran Supported […] NC) at 90 V for 90 min on ice in a transfer buffer (48 mM tris base and 39 mM glycine supplemented with 20% methanol).

LRRK2 = target: T2, LRRK2 (Mus musculus, UniProt Q5S006); assay: LRRK2 degradation in bone marrow-derived macrophages (BMDMs); type: cell-based; conditions: 4 h
T2 construct: endogenous in cells; host or cells: mouse bone marrow-derived macrophages
T2 sequence (Q5S006 whole entry): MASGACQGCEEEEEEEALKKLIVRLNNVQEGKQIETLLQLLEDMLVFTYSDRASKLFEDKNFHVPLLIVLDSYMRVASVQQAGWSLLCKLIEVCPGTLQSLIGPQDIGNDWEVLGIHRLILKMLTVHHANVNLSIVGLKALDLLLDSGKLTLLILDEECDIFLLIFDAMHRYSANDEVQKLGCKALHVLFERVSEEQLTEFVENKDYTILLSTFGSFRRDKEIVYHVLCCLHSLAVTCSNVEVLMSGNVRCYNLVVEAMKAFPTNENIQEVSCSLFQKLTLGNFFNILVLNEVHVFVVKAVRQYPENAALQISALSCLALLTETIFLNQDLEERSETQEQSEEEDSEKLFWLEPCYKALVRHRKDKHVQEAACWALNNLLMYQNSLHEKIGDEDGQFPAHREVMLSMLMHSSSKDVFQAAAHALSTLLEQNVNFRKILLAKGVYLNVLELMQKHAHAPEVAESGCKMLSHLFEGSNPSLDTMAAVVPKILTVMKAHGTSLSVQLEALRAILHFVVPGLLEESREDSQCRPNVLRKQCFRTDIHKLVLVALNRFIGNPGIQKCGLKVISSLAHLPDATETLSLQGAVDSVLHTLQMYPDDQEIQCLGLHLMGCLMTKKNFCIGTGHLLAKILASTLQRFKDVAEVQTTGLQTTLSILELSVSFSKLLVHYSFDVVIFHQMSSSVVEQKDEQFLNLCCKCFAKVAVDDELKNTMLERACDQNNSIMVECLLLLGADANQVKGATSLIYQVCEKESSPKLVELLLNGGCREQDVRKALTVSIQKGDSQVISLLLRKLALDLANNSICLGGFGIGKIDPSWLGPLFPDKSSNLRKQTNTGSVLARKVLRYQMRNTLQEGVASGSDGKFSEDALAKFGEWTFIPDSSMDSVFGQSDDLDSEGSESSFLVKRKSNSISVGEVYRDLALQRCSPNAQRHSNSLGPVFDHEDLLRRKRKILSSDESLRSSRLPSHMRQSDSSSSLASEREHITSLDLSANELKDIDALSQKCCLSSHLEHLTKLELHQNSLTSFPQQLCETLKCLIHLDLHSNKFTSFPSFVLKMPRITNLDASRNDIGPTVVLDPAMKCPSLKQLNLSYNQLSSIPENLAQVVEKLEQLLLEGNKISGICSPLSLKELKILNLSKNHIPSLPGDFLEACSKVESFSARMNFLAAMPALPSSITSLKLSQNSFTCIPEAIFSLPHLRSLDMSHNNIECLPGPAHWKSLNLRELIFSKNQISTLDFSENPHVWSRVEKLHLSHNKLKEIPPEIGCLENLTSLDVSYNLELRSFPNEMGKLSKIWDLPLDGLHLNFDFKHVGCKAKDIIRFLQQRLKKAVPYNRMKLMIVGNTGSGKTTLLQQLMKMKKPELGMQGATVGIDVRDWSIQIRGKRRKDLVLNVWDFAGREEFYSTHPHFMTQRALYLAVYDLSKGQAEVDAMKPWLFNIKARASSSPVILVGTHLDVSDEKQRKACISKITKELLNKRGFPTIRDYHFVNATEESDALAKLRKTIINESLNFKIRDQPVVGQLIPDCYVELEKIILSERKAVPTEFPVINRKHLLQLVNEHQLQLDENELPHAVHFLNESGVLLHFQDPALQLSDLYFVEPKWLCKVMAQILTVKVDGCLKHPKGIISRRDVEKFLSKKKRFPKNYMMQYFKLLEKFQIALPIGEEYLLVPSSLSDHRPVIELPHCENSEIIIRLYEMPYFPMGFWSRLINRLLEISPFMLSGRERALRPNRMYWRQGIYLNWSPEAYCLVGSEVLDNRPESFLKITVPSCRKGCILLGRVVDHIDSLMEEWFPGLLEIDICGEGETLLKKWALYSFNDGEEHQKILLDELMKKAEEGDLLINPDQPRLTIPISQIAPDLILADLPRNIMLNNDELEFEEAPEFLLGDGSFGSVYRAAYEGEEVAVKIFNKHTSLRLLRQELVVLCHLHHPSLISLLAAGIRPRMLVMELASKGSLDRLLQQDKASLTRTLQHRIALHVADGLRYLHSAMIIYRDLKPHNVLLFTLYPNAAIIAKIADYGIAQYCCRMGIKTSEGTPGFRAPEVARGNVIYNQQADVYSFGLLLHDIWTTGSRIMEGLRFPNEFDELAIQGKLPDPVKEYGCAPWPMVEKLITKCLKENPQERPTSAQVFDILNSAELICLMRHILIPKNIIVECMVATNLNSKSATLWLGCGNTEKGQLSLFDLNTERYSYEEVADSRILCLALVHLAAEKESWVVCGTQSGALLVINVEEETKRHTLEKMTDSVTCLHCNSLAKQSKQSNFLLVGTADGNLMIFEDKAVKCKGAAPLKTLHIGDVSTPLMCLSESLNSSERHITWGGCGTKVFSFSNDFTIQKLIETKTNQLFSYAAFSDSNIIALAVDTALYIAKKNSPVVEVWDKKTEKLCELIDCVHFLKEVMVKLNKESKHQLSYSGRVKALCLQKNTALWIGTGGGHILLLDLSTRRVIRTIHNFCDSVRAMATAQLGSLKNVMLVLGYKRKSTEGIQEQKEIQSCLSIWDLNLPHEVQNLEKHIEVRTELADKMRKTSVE
Text: as §1
Bone marrow isolation and macrophage differentiation were modified from ref ([81]), employing an L929 preconditioned medium as the source of M-CSF for differentiation. Briefly, scissors and forceps were used to dissect femurs and tibiae from adult mice, and muscle tissues were carefully removed from bones. Clean femurs and tibiae were placed in a tissue culture dish containing complete media. The ends of each bone were cut with scissors to expose the bone marrow. […] The cell suspension was counted, and cells were seeded for experimental analysis in a six-well format in tissue culture-treated dishes at a final cell density of one million cells per well of a six-well plate. […]

T1 sequence (Q5S007 whole entry): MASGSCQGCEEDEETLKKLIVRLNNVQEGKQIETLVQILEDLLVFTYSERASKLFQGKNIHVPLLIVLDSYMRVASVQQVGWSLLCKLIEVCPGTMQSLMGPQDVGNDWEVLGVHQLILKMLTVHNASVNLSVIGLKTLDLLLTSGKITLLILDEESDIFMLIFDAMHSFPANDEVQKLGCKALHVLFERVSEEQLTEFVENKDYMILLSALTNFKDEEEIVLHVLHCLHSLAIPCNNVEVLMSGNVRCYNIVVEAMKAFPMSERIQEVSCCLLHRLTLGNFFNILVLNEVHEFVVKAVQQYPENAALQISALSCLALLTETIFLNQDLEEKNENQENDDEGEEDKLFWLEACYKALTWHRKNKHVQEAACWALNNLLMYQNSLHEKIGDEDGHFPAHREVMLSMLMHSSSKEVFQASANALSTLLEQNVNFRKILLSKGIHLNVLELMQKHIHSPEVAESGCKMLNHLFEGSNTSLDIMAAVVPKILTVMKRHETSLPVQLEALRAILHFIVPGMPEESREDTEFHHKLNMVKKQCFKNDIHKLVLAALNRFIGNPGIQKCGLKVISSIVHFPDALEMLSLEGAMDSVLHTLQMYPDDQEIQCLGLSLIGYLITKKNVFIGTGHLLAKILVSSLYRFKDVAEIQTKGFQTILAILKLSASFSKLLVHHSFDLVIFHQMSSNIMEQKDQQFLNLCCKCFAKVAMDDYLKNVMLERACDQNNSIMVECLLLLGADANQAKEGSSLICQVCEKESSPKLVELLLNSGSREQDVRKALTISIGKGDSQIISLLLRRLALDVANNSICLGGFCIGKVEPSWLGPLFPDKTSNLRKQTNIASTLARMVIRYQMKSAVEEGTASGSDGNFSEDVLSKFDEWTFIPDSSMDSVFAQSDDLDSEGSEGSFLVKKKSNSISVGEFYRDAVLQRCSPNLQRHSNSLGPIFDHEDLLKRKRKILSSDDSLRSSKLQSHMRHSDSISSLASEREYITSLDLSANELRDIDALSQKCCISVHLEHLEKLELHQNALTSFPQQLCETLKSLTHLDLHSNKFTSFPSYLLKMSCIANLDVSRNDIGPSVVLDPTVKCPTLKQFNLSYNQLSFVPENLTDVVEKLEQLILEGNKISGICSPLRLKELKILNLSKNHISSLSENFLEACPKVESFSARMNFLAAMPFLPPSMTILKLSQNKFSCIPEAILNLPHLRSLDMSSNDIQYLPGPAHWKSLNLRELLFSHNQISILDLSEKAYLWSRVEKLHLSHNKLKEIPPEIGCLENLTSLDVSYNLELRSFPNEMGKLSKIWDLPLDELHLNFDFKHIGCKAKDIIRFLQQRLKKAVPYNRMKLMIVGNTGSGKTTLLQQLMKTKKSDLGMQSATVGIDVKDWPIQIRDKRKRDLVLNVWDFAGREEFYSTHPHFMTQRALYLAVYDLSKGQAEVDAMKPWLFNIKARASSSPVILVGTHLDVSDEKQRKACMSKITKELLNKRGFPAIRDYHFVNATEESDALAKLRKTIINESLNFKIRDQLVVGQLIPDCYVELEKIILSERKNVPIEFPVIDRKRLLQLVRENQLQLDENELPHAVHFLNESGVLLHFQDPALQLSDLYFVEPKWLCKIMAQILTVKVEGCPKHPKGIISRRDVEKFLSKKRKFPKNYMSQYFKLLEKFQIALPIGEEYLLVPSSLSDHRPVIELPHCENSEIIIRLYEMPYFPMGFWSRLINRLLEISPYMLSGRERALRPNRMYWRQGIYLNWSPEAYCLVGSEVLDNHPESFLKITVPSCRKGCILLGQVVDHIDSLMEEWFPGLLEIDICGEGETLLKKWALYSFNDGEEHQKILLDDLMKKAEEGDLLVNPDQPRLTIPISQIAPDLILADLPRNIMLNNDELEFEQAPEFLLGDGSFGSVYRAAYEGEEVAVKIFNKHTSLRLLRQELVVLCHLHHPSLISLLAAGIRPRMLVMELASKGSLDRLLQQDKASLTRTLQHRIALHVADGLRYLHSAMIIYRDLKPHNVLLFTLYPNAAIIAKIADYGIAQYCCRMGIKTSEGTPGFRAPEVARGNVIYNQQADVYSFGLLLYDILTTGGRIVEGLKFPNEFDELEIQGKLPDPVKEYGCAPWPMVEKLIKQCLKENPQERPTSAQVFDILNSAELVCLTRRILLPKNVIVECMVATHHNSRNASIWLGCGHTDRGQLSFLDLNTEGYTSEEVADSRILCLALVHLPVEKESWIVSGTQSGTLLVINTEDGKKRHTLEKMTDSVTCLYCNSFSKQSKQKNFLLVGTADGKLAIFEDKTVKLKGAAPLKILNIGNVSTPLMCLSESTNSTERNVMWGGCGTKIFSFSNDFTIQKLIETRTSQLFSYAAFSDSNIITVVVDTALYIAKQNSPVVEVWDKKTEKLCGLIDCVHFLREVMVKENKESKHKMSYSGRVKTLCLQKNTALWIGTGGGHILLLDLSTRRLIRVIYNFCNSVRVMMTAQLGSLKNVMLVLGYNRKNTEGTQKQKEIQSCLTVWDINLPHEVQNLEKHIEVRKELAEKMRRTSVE

Structure (SMILES) | DC50 (human LRRK2; 4 h, read-out: DC50,4h (LRRK2)) [nM] | DC50 (human LRRK2; 24 h, read-out: DC50,24h (LRRK2)) [nM] | Dmax (LRRK2; BMDM) [%] | DC50,4h (LRRK2) (human LRRK2; 4 h) | Dmax (LRRK2) (human LRRK2; 4 h) | DC50,24h (LRRK2) (human LRRK2; 24 h) | Dmax (LRRK2) (human LRRK2; 24 h) | DC50s (LRRK2) (LRRK2) | Dmax (LRRK2) (LRRK2)
CNc1nc(Nc2ccc(C(=O)N3CCN(C[C@H]4CC[C@H](CSC(C)(C)[C@H](NC(=O)C5(F)CC5)C(=O)N5C[C@H](O)CC5C(=O)NCc5ccc(-c6scnc6C)cc5)CC4)CC3)cc2OC)ncc1Cl (stereo partly drawn) [XL01126, (2S,4R)-1-((R)-3-((((1R,4R)-4-((4-(4-((5-Chloro-4-(methylamino)pyrimidin-2-yl)amino)-3-methoxybenzoyl)piperazin-1-yl)methyl)cyclohexyl)methyl)thio)-2-(1-fluorocyclopropane-1-carboxamido)-3-methylbutanoyl)-4-hydroxy-N-(4-(4-methylthiazol-5-yl)benzyl)pyrrolidine-2-carboxamide] | 72 | 17 | 83 | – | – | – | – | – | –
CNc1nc(Nc2ccc(C(=O)N3CCN(C[C@H]4CC[C@H](CSC(C)(C)[C@H](NC(=O)C5(F)CC5)C(=O)N5C[C@@H](O)C[C@H]5C(=O)NCc5ccc(-c6scnc6C)cc5)CC4)CC3)cc2OC)ncc1Cl [cis-XL01126, (2S,4S)-1-((R)-3-((((1R,4R)-4-((4-(4-((5-Chloro-4-(methylamino)pyrimidin-2-yl)amino)-3-methoxybenzoyl)piperazin-1-yl)methyl)cyclohexyl)methyl)thio)-2-(1-fluorocyclopropane-1-carboxamido)-3-methylbutanoyl)-4-hydroxy-N-(4-(4-methylthiazol-5-yl)benzyl)pyrrolidine-2-carboxamide] | – | – | – | NDO | NDO | NDO | NDO | NDO | NDO
